Results reported in the supplement of paper PMC11061612.

Tests used:
[1] = compound: NC1(c2ccc(-c3nc4ccn5c(=O)[nH]nc5c4cc3-c3ccccc3)cc2)CCC1 [MK-2206]; details: max 10 µM
In short: (§1)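 Viability was measured with CellTiter-Glo 2.0 luminescence after 72 hours of dosing at a final DMSO of typically 0.2%, and scaled between blank-well and DMSO-well means. Beforehand, cancer cell lines sat 24 hours at 37°C and 5% CO2 in 1536-well plates in 7.5 μl DMEM/F12 or RPMI with 10% FBS. A non-linear mixed effects model fitted two-parameter logistic curves to the dose responses. The single-agent IC50 comes from these fits.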

[2] = compound: CCN(CCO)CCCOc1ccc2c(Nc3cc(CC(=O)Nc4cccc(F)c4)[nH]n3)ncnc2c1 [AZD2811]; details: max 1 µM
In short: as §1

[3] = compound: Cc1c2c(nn1C)CSCc1cc(n(C)n1)CSc1cc(c3ccccc3c1)OCCCc1c(C(=O)O)n(C)c3c-2c(Cl)ccc13 [AZD5991]; details: max 1 µM
In short: as §1

[4] = compound: COc1cc2ncnc(Nc3ccc(F)c(Cl)c3)c2cc1OCCCN1CCOCC1 [Gefitinib]; details: max 10 µM
In short: as §1

[5] = compound: COc1nnc2ccc(N3CCC(c4ccc(OCCN5CCN(C)C(=O)[C@H]5C)cc4)CC3)nn12 [AZD5153]; details: max 1 µM
In short: as §1

[6] = compound: CCc1c2c(nc3ccc(O)cc13)-c1cc3c(c(=O)n1C2)COC(=O)[C@]3(O)CC [SN-38]; details: max 0.3 µM
In short: as §1

[7] = compound: CS(=O)(=O)CCNCc1ccc(-c2ccc3ncnc(Nc4ccc(OCc5cccc(F)c5)c(Cl)c4)c3c2)o1 [Lapatinib]; details: max 10 µM
In short: as §1

[8] = compound: COc1cccc(OCCCN)c1-c1cc(Nc2cnc(C#N)cn2)n[nH]1 [Prexasertib]; details: max 1 µM
In short: as §1

[9] = compound: COc1cccc2c1C(=O)c1c(O)c3c(c(O)c1C2=O)C[C@@](O)(C(=O)CO)C[C@@H]3O[C@H]1C[C@H](N)[C@H](O)[C@H](C)O1 [Doxorubicin]; details: max 1 µM
In short: as §1

[10] = compound: Cc1cc2ncnn2cc1Nc1ncc2c(n1)n(C1CCOCC1)c(=O)n2C [AZD7648]; details: max 10 µM
In short: as §1

[11] = compound: CC1(C)CCC(CN2CCN(c3ccc(C(=O)NS(=O)(=O)c4ccc(NCC5CCOCC5)c([N+](=O)[O-])c4)c(Oc4cnc5[nH]ccc5c4)c3)CC2)=C(c2ccc(Cl)cc2)C1 [Venetoclax]; details: max 1 µM
In short: as §1

[12] = compound: CC1=C(C(=CC=C1)Cl)NC(=O)C2=CN=C(S2)NC3=CC(=NC(=N3)C)N4CCN(CC4)CCO [Dasatinib]; details: max 2 µM
In short: as §1

[13] = compound: C[C@@H](Oc1cc(-c2cnn(C3CCNCC3)c2)cnc1N)c1c(Cl)ccc(F)c1Cl [Crizotinib]; details: max 10 µM
In short: as §1

[14] = compound: C1CN(CCC1(C(=O)N[C@@H](CCO)C2=CC=C(C=C2)Cl)N)C3=NC=NC4=C3C=CN4 [Capivasertib]; details: max 10 µM
In short: as §1

[15] = compound: C[C@@H]1COCCN1C2=NC(=NC(=C2)C3(CC3)[S@](=N)(=O)C)C4=C5C=CNC5=NC=C4 [AZD6738]; details: max 10 µM
In short: as §1

[16] = compound: Cc1nc(-c2cn3c(n2)-c2ccc(-c4cnn(C(C)(C)C(N)=O)c4)cc2OCC3)n(C(C)C)n1 [Taselisib]; details: max 10 µM
In short: as §1

[17] = compound: CN(CC[C@H](CSC1=CC=CC=C1)NC2=C(C=C(C=C2)S(=O)(=O)NC(=O)C3=CC=C(C=C3)N4CCC(CC4)[C@H](C5=CC=CC=C5C6=CC=C(C=C6)Cl)O)S(=O)(=O)C(F)(F)F)CCO [AZD4320]; details: max 1 µM
In short: as §1

[18] = compound: CN(C)CCCOc1ccc(-c2ccc3ncc4c(c3c2)n(C2CCOCC2)c(=O)n4C)cn1 [AZD0156]; details: max 3 µM
In short: as §1

[19] = compound: C[C@@H](c1ccc2nccn2c1)n1nnc2ncc(-c3cnn(C)c3)nc21 [Savolitinib]; details: max 1 µM
In short: as §1

[20] = compound: Cn1cnc2c(F)c(Nc3ccc(Br)cc3Cl)c(C(=O)NOCCO)cc21 [Selumetinib]; details: max 10 µM
In short: as §1

[21] = compound: COc1cc(Nc2ncc3c(n2)-c2ccc(Cl)cc2C(c2c(F)cccc2OC)=NC3)ccc1C(=O)O [Alisertib]; details: max 10 µM
In short: as §1

[22] = compound: CC1=CN2[C@@H](C1)C=NC3=CC(=C(C=C3C2=O)OC)OCCCCCOC4=C(C=C5C(=C4)N=C[C@@H]6CC(=CN6C5=O)C)OC [SG3199]; details: max 0.001 µM
In short: as §1

[23] = compound: CC(C)n1c(=O)n(C)c2cnc3cc(F)c(-c4ccc(OCCCN5CCCCC5)nc4)cc3c21 [AZD1390]; details: max 0.3 µM
In short: as §1

[24] = compound: CC(=O)Nc1cccc(-n2c(=O)n(C3CC3)c(=O)c3c(Nc4ccc(I)cc4F)n(C)c(=O)c(C)c32)c1 [Trametinib]; details: max 1 µM
In short: as §1

[25] = compound: CC(=O)c1c(C)c2cnc(Nc3ccc(N4CCNCC4)cn3)nc2n(C2CCCC2)c1=O [Palbociclib]; details: max 10 µM
In short: as §1

[26] = compound: C[C@@H](Nc1cc(F)cc(F)c1)c1cc(C(=O)N(C)C)cc2c(=O)cc(N3CCOCC3)oc12 [AZD8186]; details: max 3 µM
In short: as §1

[27] = compound: C=CCn1c(=O)c2cnc(Nc3ccc(N4CCN(C)CC4)cc3)nc2n1-c1cccc(C(C)(C)O)n1 [AZD1775]; details: max 3 µM
In short: as §1

[28] = compound: O=C(c1cc(Cc2n[nH]c(=O)c3ccccc23)ccc1F)N1CCN(C(=O)C2CC2)CC1 [Olaparib]; details: max 10 µM
In short: as §1

Cell Line	IC50, cell viability 72 h [1] [nM]	IC50, cell viability 72 h [2] [nM]	IC50, cell viability 72 h [3] [nM]	IC50, cell viability 72 h [4] [nM]	IC50, cell viability 72 h [5] [nM]	IC50, cell viability 72 h [6] [nM]	IC50, cell viability 72 h [7] [nM]	IC50, cell viability 72 h [8] [nM]	IC50, cell viability 72 h [9] [nM]	IC50, cell viability 72 h [10] [nM]	IC50, cell viability 72 h [11] [nM]	IC50, cell viability 72 h [12] [nM]	IC50, cell viability 72 h [13] [nM]	IC50, cell viability 72 h [14] [nM]	IC50, cell viability 72 h [15] [nM]	IC50, cell viability 72 h [16] [nM]	IC50, cell viability 72 h [17] [nM]	IC50, cell viability 72 h [18] [nM]	IC50, cell viability 72 h [19] [nM]	IC50, cell viability 72 h [20] [nM]	IC50, cell viability 72 h [21] [nM]	IC50, cell viability 72 h [22] [nM]	IC50, cell viability 72 h [23] [nM]	IC50, cell viability 72 h [24] [nM]	IC50, cell viability 72 h [25] [nM]	IC50, cell viability 72 h [26] [nM]	IC50, cell viability 72 h [27] [nM]	IC50, cell viability 72 h [28] [nM]
NCI-H2347 (Lung Adenocarcinoma)	> 10000	> 1000	> 1000	> 10000	> 1000	> 300	> 10000	> 1000	> 1000	> 10000	> 1000	> 2000	> 10000	> 10000	> 10000	> 10000	> 1000	> 3000	> 1000	> 10000	> 10000	> 1	> 300	> 1000	> 10000	> 3000	> 3000	> 10000
NCI-H2405 (Lung Adenocarcinoma)	> 10000	> 1000	> 1000	> 10000	> 1000	> 300	> 10000	> 1000	> 1000	> 10000	> 1000	> 2000	> 10000	> 10000	> 10000	> 10000	> 1000	> 3000	> 1000	> 10000	> 10000	> 1	> 300	430	> 10000	> 3000	> 3000	> 10000
